Laboratory results taken from patent US20250051263A1, “NOVEL IONIZABLE LIPIDS AND LIPID NANOPARTICLES AND METHODS OF USING THE SAME” (Sail Biomedicines, Inc., priority 2021, published 2025).
Where “and” joins values, the source holds several entries; their conditions need not be identical. Equal values may be shown once.

Key:
[1] = mRNA encapsulation efficiency, Quant-iT RiboGreen RNA Assay; assay type: physicochemical; settings: LNP ionizable lipid:DSPC:Plant Chol.:DMPE-PEG2k 50:10:38.5:1.5
[2] = test system: Balb/c mice; assay: EPO levels in plasma by EPO MSD kit after IV injection of EPO mRNA LNP; assay type: in vivo
Experimental: 8-9 week old female Balb/c mice are utilized for bioluminescence-based ionizable lipid screening efforts. Mice are obtained from Jackson Laboratories (JAX Stock: 000651) and allowed to acclimate for one week prior to manipulations. Animals are placed under a heat lamp for a few minutes before introducing them to a restraining chamber. The tail is wiped with alcohol pads (Fisher Scientific) and 100 μL of a lipid nanoparticle composition descrbed above containing 10 ug total mRNA (5 ug Fluc+5 ug EPO) is injected intravenously using a 29 G insulin syringe (Covidien). Any resulting bleeding is stemmed using a sterile gauze pad (Fisher Scientific) and animals are placed back into their home cage. 4-6 hours post-dose, animals are injected with 200 μL of 15 mg/mL D-Luciferin (GoldBio) and placed in an isoflurane induction chamber set to deliver 2.5% isoflurane delivered at an oxygen flow rate of 1-2 liters per min. After 5 minutes of isoflurane exposure, mice are placed in set nose cones inside the IVIS Lumina LT imager (PerkinElmer). LivingImage software is utilized for imaging. Whole body bio-luminescence is captured at auto-exposure after which animals are removed from the IVIS and placed into a CO2 chamber for euthanasia. Cardiac puncture is performed on each animal after placing it in dorsal recumbency, and blood collection is performed using a 25 G insulin syringe (BD). Blood is collected in Lithium-Heparin coated tubes (Fisher Scientific) and immediately placed on ice. Once all blood samples are collected, tubes are spun at 2000 G for 10 minutes using a tabletop centrifuge and plasma is aliquoted into individual Eppendorf tubes (Fisher Scientific) and stored at −80 C for subsequent EPO quantification. EPO levels in plasma are determined using EPO MSD kit (Meso Scale Diagnostics).
8-9 week old female Balb/c mice were utilized for bioluminescence-based ionizable lipid screening efforts. Mice were obtained from Jackson Laboratories (JAX Stock: 000651) and allowed to acclimate for one week prior to manipulations. Animals were placed under a heat lamp for a few minutes before introducing them to a restraining chamber. The tail was wiped with alcohol pads (Fisher Scientific) and, for each LNP composition descrbed above, 100 μL of a lipid nanoparticle composition descrbed above containing 10 μg total mRNA (5 μg Fluc+5 μg EPO, 5 μg Fluc+5 μg Cre, or 5 μg EGFP) was injected intravenously using a 29 G insulin syringe (Covidien).
4-6 hours post-dose, animals were injected with 200 μL of 15 mg/mL D-Luciferin (GoldBio), and placed in set nose cones inside the IVIS Lumina LT imager (PerkinElmer). LivingImage software was utilized for imaging. Whole body bio-luminescence was captured at auto-exposure after which animals are removed from the IVIS and placed into a CO2 chamber for euthanasia. Cardiac puncture was performed on each animal after placing it in dorsal recumbency, and blood collection was performed using a 25 G insulin syringe (BD). Once all blood samples were collected, tubes are spun at 2000 G for 10 minutes using a tabletop centrifuge and plasma was aliquoted into individual Eppendorf tubes (Fisher Scientific) and stored at −80° C. for subsequent EPO quantification. EPO levels in plasma were determined using EPO MSD kit (Meso Scale Diagnostics).

[3] = test system: Balb/c mice; assay: In-vivo bioluminescent imaging after IV injection of Fluc mRNA LNP; settings: for Bioluminescence (IV) Liver / Bioluminescence (IV) Lung / Bioluminescence (IV) Spleen / Bioluminescence (IV) Whole Body / Spleen: Liver Ratio: Example 5 LNP (DOPE 35:16:46.5:2.5), 5 μg FLUC + 5 μg EPO; for Bioluminescence (IV) Liver / Bioluminescence (IV) Lung / Bioluminescence (IV) Spleen / Bioluminescence (IV) Whole Body / Bioluminescence Liver / Bioluminescence Lung / Bioluminescence Spleen: 4-6 hours post-dose; for Bioluminescence (IV) Liver / Bioluminescence (IV) Lung / Bioluminescence (IV) Spleen / Bioluminescence (IV) Whole Body / Spleen: Liver Ratio / Bioluminescence Liver / Bioluminescence Lung / Bioluminescence Spleen: IV; for Spleen: Liver Ratio: ratio of bioluminescence; for Bioluminescence Liver / Bioluminescence Lung / Bioluminescence Spleen: LNP lipid:DSPC:Plant Chol.:DMPE-PEG2k 50:10:38.5:1.5, 5 ug Fluc+5 ug EPO mRNA; for bioluminescence in the liver, spleen, and lung: used as part of an ionizable lipid scaffold (LNP), Table 1
[4] = mRNA encapsulation efficiency, Quant-iT RiboGreen RNA Assay; assay type: physicochemical
[5] = Example 5 LNP (DOPE 35:16:46.5:2.5), 5 μg FLUC + 5 μg EPO
[6] = LNP lipid:DSPC:Plant Chol.:DMPE-PEG2k 50:10:38.5:1.5, 5 ug Fluc+5 ug EPO mRNA
[7] = Example 5 LNP lipid:DOPE:Plant Cholesterol:DMPE-PEG2k 35:16:46.5:2.5, FLUC/EPO 1:1 mRNA, N:P 6:1

SMILES	% EE [1] [%]	hEPO [2, 5]	hEPO [2, 6]	Bioluminescence (IV) Liver [3]	Bioluminescence (IV) Lung [3]	Bioluminescence (IV) Spleen [3]	Bioluminescence (IV) Whole Body [3]	Spleen: Liver Ratio [3]	Bioluminescence Liver [3]	Bioluminescence Lung [3]	Bioluminescence Spleen [3]	bioluminescence in the liver, spleen, and lung [3]	% EE [4, 7] [%]	% EE ([4]; LNP ionizable lipid:DOPE:Plant Chol.:DMPE-PEG2k 35:16:46.5:2.5 (Table 1))
CCCCCCCCCCCOC(=O)CCCCCN(CCCCCCCC(=O)OC(CCCCCCCC)CCCCCCCC)CCOC(=O)OCCN(CCCCCCCC(=O)OC(CCCCCCCC)CCCCCCCC)CCCCCC(=O)OCCCCCCCCCCC [Compound 2218, 1-octylnonyl 8-[2-[2-[[8-(1-octylnonoxy)-8-oxo-octyl]-(6-oxo-6-undecoxy-hexyl)amino]ethoxycarbonyloxy]ethyl-(6-oxo-6-undecoxy-hexyl)amino]octanoate]	86.5	9.6E+01	8.40E+01	1.9E+03	7.9E+02	1.8E+03	4.1E+03	1.019	1.16E+03	7.20E+02	8.14E+03	improved bioluminescence	91.7	94.4% and 91.7%
CCCCCCCCCCCOC(=O)CCCCCN(CCCCCCCC(=O)OC(CCCCCCCC)CCCCCCCC)CCNC(=O)CC(=O)NCCN(CCCCCCCC(=O)OC(CCCCCCCC)CCCCCCCC)CCCCCC(=O)OCCCCCCCCCCC [Compound 2220, 1-octylnonyl 8-[2-[[3-[2-[[8-(1-octylnonoxy)-8-oxo-octyl]-(6-oxo-6-undecoxy-hexyl)amino]ethylamino]-3-oxo-propanoyl]amino]ethyl-(6-oxo-6-undecoxy-hexyl)amino]octanoate]	91	7.1E+05	6.99E+05	1.1E+07	1.8E+03	7.5E+04	4.3E+07	0.004	1.03E+07	7.79E+03	2.09E+06	improved bioluminescence	94.4	–
CCCCCCCCCCCOC(=O)CCCCCN(CCCCCCCC(=O)OCCCC(CCCCC)CCCCC)CCN1CCN(CCN(CCCCCCCC(=O)OCCCC(CCCCC)CCCCC)CCCCCC(=O)OCCCCCCCCCCC)CC1 [Compound 2397, 4-pentylnonyl 8-[2-[4-[2-[[8-oxo-8-(4-pentylnonoxy)octyl]-(6-oxo-6-undecoxy-hexyl)amino]ethyl]piperazin-1-yl]ethyl-(6-oxo-6-undecoxy-hexyl)amino]octanoate]	–	1.5E+06	–	1.4E+07	9.4E+03	6.5E+05	6.5E+07	0.052	–	–	–	–	94.0	–
